Data as given in patent publication US4742053A, “3-Isoquinoliniomethyl cephalosporin derivatives” (Banyu Pharmaceutical Co., Ltd., priority 1984, dated 1988).
≈ marks a conversion by molar mass, not a printed value. Where two headings read alike, the source gives them in different places.

Tests used:
Test in all cases: MIC by agar plate dilution method
Type in all cases: cell-based
A. calcoaceticus No. 14 = settings: 10^6 CFU/ml; for MIC: Acinetobacter calcoaceticus, NO.14, A. calcoaceticus No. 14, read-out: Minimum Inhibitory Concentration
Experimental: (§1) The minimum inhibitory concentrations (MIC: μg/ml) of the compounds of the present invention against various microorganisms were measured by an agar plate dilution method (inoculum size: 10^6 CFU/ml) by using Sensitivity Disk Agar (Nissui) in comparison with Cefotaxime and Ceftazidime as comparative compounds.
(§2) Minimum Inhibitory Concentration (μg/ml; 10^6 CFU/ml)

C. freundii No. 7 = settings: C. freundii No. 7, 10^6 CFU/ml; for MIC: Citrobacter freundii, read-out: Minimum Inhibitory Concentration
Experimental: as §1, §2

E. cloaceae Nek 39 = settings: E. cloaceae Nek 39, 10^6 CFU/ml; for MIC: read-out: Minimum Inhibitory Concentration
Experimental: as §1, §2

E. coli C/Rms149 = settings: 10^6 CFU/ml; for MIC: Escherichia coli, read-out: Minimum Inhibitory Concentration, E. coli C/Rms149
Experimental: as §1, §2

E. coli CSH2 = settings: 10^6 CFU/ml; for MIC: Escherichia coli, read-out: Minimum Inhibitory Concentration
Experimental: as §1, §2

E. coli CSH = settings: 10^6 CFU/ml; for MIC: Escherichia coli, read-out: Minimum Inhibitory Concentration
Experimental: as §1, §2

E. coli ML1410/Rte16 = settings: 10^6 CFU/ml; for MIC: Escherichia coli, ML1410/RTE16, read-out: Minimum Inhibitory Concentration, E. coli ML1410/Rte16
Experimental: as §1, §2

E. coli NIHJJC-2 = settings: 10^6 CFU/ml; for MIC: Escherichia coli, NIHJJC2, E. coli NIHJJC-2, read-out: Minimum Inhibitory Concentration
Experimental: as §1, §2

E. coli W3630/Rms212 = settings: 10^6 CFU/ml; for MIC: Escherichia coli, W3630/RMS212, read-out: Minimum Inhibitory Concentration, E. coli W3630/Rms212
Experimental: as §1, §2

E. coli W3630/Rms213 = settings: 10^6 CFU/ml; for MIC: Escherichia coli, W3630/RMS213, read-out: Minimum Inhibitory Concentration, E. coli W3630/Rms213
Experimental: as §1, §2

K. pneumoniae No. 42 = settings: K. pneumoniae No. 42, 10^6 CFU/ml; for MIC: Klebsiella pneumoniae, read-out: Minimum Inhibitory Concentration
Experimental: as §1, §2

P. aeruginosa AK109 = settings: 10^6 CFU/ml; for Minimum Inhibitory Concentration: P. aeruginosa AK109; for MIC: Pseudomonas aeruginosa, AK109, P. aeruginosa AK109, read-out: Minimum Inhibitory Concentration
Experimental: as §1, §2

P. aeruginosa AKR17 = settings: 10^6 CFU/ml; for MIC: Pseudomonas aeruginosa, AKR17, P. aeruginosa AKR17, read-out: Minimum Inhibitory Concentration
Experimental: as §1, §2

P. cepacia 23 = settings: P. cepacia 23, 10^6 CFU/ml; for MIC: Burkholderia cepacia, read-out: Minimum Inhibitory Concentration
Experimental: as §1, §2

P. mirabilis JY10 = settings: P. mirabilis JY10, 10^6 CFU/ml; for MIC: Proteus mirabilis, read-out: Minimum Inhibitory Concentration
Experimental: as §1, §2

P. vulgaris No. 33 = settings: P. vulgaris No. 33, 10^6 CFU/ml; for MIC: Proteus vulgaris, read-out: Minimum Inhibitory Concentration
Experimental: as §1, §2

P. vulgaris OB1043 = settings: 10^6 CFU/ml; for MIC: Proteus vulgaris, OB1043, P. vulgaris OB1043, read-out: Minimum Inhibitory Concentration
Experimental: as §1, §2

S. aureus JS-1 = settings: S. aureus JS-1, 10^6 CFU/ml; for MIC: Staphylococcus aureus, JS1, read-out: Minimum Inhibitory Concentration
Experimental: as §1, §2

S. aureus NIHJJC-1 = settings: for MIC: Staphylococcus aureus
Experimental: as §1, §2

S. marcescens No. 16-2 = settings: S. marcescens No. 16-2, 10^6 CFU/ml; for MIC: Serratia marcescens, NO.162, read-out: Minimum Inhibitory Concentration
Experimental: as §1, §2

[1] = NIHJJC1, S. aureus NIHJJC-1, 10^6 CFU/ml, read-out: Minimum Inhibitory Concentration

| SMILES | MIC (A. calcoaceticus No. 14) [µg/mL] | MIC (C. freundii No. 7) [µg/mL] | MIC (E. cloaceae Nek 39) [µg/mL] | MIC (E. coli C/Rms149) [µg/mL] | MIC (E. coli CSH2) [µg/mL] | MIC (E. coli CSH) [µg/mL] | MIC (E. coli ML1410/Rte16) [µg/mL] | MIC (E. coli NIHJJC-2) [µg/mL] | MIC (E. coli W3630/Rms212) [µg/mL] | MIC (E. coli W3630/Rms213) [µg/mL] | MIC (K. pneumoniae No. 42) [µg/mL] | Minimum Inhibitory Concentration (P. aeruginosa AK109) [µg/mL] | MIC (P. aeruginosa AKR17) [µg/mL] | MIC (P. mirabilis JY10) [µg/mL] | MIC (P. vulgaris No. 33) [µg/mL] | MIC (P. vulgaris OB1043) [µg/mL] | MIC (S. aureus JS-1) [µg/mL] | MIC (S. aureus NIHJJC-1; [1]) [µg/mL] | MIC (S. marcescens No. 16-2) [µg/mL] | MIC (P. aeruginosa AK109) [µg/mL] | also measured |
| --- | --- | --- | --- | --- | --- | --- | --- | --- | --- | --- | --- | --- | --- | --- | --- | --- | --- | --- | --- | --- | --- |
| CC(C)(O/N=C(\C(=O)NC1C(=O)N2C(C(=O)[O-])=C(C[N+]3(C)CCc4ccccc4C3)CSC12)c1csc(N)n1)C(=O)O (single isomer, unassigned) [Isomer A of Ex. 8-E, 7-[(Z)-2-(2-aminothiazol-4-yl)-2-(1-carboxy-1-methylethoxyimino)acetamido]-3-(2-methyl-1,2,3,4-tetrahydro-2-isoquinolinium)methyl-3-cephem-4-carboxylate] | 25 (≈ 40.7 µM) | 1.56 (≈ 2.54 µM) | 1.56 (≈ 2.54 µM) | 0.2 (≈ 0.325 µM) | 0.1 (≈ 0.163 µM) | 0.1 (≈ 0.163 µM) | 0.2 (≈ 0.325 µM) | 0.2 (≈ 0.325 µM) | 0.39 (≈ 0.634 µM) | 0.39 (≈ 0.634 µM) | 0.78 (≈ 1.27 µM) | 6.25 | 25 (≈ 40.7 µM) | 0.2 (≈ 0.325 µM) | 0.1 (≈ 0.163 µM) | 0.1 (≈ 0.163 µM) | > 25 | 6.25 (≈ 10.2 µM) | 3.12 (≈ 5.08 µM) |  | MIC (P. cepacia 23): 6.25 µg/mL (≈ 10.2 µM) |
| CC(C)(O/N=C(\C(=O)NC1C(=O)N2C(C(=O)[O-])=C(C[N+]3(C)CCc4ccccc4C3)CSC12)c1csc(N)n1)C(=O)O (single isomer, unassigned) [Isomer B of Ex. 8-E, 7-[(Z)-2-(2-aminothiazol-4-yl)-2-(1-carboxy-1-methylethoxyimino)acetamido]-3-(2-methyl-1,2,3,4-tetrahydro-2-isoquinolinium)methyl-3-cephem-4-carboxylate] |  |  |  |  |  |  |  |  |  |  |  | 3.12 |  |  |  |  |  |  |  |  | Minimum Inhibitory Concentration (A. calcoaceticus No. 14; A. calcoaceticus No. 14): > 25 µg/mL; Minimum Inhibitory Concentration (C. freundii No. 7): 1.56 µg/mL; Minimum Inhibitory Concentration (E. cloaceae Nek 39): 3.12 µg/mL; Minimum Inhibitory Concentration (E. coli C/Rms149; E. coli C/Rms149): 0.39 µg/mL; Minimum Inhibitory Concentration (E. coli CSH2): 0.1 µg/mL; Minimum Inhibitory Concentration (E. coli CSH): 0.2 µg/mL; Minimum Inhibitory Concentration (E. coli ML1410/Rte16; E. coli ML1410/Rte16): 0.39 µg/mL; Minimum Inhibitory Concentration (E. coli NIHJJC-2; E. coli NIHJJC-2): 0.39 µg/mL; Minimum Inhibitory Concentration (E. coli W3630/Rms212; E. coli W3630/Rms212): 0.78 µg/mL; Minimum Inhibitory Concentration (E. coli W3630/Rms213; E. coli W3630/Rms213): 0.78 µg/mL; Minimum Inhibitory Concentration (K. pneumoniae No. 42): 0.78 µg/mL; Minimum Inhibitory Concentration (P. aeruginosa AKR17; P. aeruginosa AKR17): > 25 µg/mL; Minimum Inhibitory Concentration (P. cepacia 23): 6.25 µg/mL; Minimum Inhibitory Concentration (P. mirabilis JY10): 0.2 µg/mL; Minimum Inhibitory Concentration (P. vulgaris No. 33): 0.1 µg/mL; Minimum Inhibitory Concentration (P. vulgaris OB1043; P. vulgaris OB1043): 0.2 µg/mL; Minimum Inhibitory Concentration (S. aureus JS-1): > 25 µg/mL; Minimum Inhibitory Concentration (S. aureus NIHJJC-1; S. aureus NIHJJC-1, 10^6 CFU/ml): 12.5 µg/mL; Minimum Inhibitory Concentration (S. marcescens No. 16-2): 3.12 µg/mL |
| CO/N=C(\C(=O)NC1C(=O)N2C(C(=O)[O-])=C(C[N+]3(C)CCc4ccccc4C3)CSC12)c1csc(N)n1 (stereo not shown) [Ex. 1-B, 7-[(Z)-2-(2-aminothiazol-4-yl)-2-methoxyiminoacetamido]-3-(2-methyl-1,2,3,4-tetrahydro-2-isoquinolinium)methyl-3-cephem-4-carboxylate] | 25 (≈ 46.1 µM) | 1.56 (≈ 2.87 µM) | 1.56 (≈ 2.87 µM) | 0.1 (≈ 0.184 µM) | 0.05 (≈ 0.0921 µM) | 0.2 (≈ 0.369 µM) |  | 0.1 (≈ 0.184 µM) | 0.2 (≈ 0.369 µM) | 1.56 (≈ 2.87 µM) | 0.2 (≈ 0.369 µM) |  | > 25 | 0.78 (≈ 1.44 µM) | 0.2 (≈ 0.369 µM) | 0.78 (≈ 1.44 µM) | 3.12 (≈ 5.75 µM) | 0.78 (≈ 1.44 µM) | 6.25 (≈ 11.5 µM) | 6.25 (≈ 11.5 µM) |  |
| CO/N=C(\C(=O)NC1C(=O)N2C(C(=O)[O-])=C(C[N+]3(C)CCc4cc(OC)c(OC)cc4C3)CSC12)c1csc(N)n1 (stereo not shown) [Ex. 2-E, 7-[(Z)-2-(2-aminothiazol-4-yl)-2-methoxyiminoacetamido]-3-(6,7-dimethoxy-2-methyl-1,2,3,4-tetrahydro-2-isoquinolinium)methyl-3-cephem-4-carboxylate] | > 25 | 12.5 (≈ 20.7 µM) | 12.5 (≈ 20.7 µM) | 0.78 (≈ 1.29 µM) | 0.2 (≈ 0.332 µM) | 1.56 (≈ 2.59 µM) | 0.78 (≈ 1.29 µM) | 0.78 (≈ 1.29 µM) | 1.56 (≈ 2.59 µM) | 3.12 (≈ 5.18 µM) | 1.56 (≈ 2.59 µM) |  | > 25 | 3.12 (≈ 5.18 µM) | 1.56 (≈ 2.59 µM) | 3.12 (≈ 5.18 µM) | 12.5 (≈ 20.7 µM) |  | > 25 | 25 (≈ 41.5 µM) | MIC (S. aureus NIHJJC-1; NIHJJC1, read-out: Minimum Inhibitory Concentration): 1.56 µg/mL (≈ 2.59 µM) |
| CCO/N=C(\C(=O)NC1C(=O)N2C(C(=O)[O-])=C(C[N+]3(C)CCc4ccccc4C3)CSC12)c1csc(N)n1 (stereo not shown) [Ex. 7-D, 7-[(Z)-2-(2-aminothiazol-4-yl)-2-ethoxyiminoacetamido]-3-(2-methyl-1,2,3,4-tetrahydro-2-isoquinolinium)methyl-3-cephem-4-carboxylate] | 25 (≈ 44.9 µM) | 3.12 (≈ 5.6 µM) | 3.12 (≈ 5.6 µM) | 0.39 (≈ 0.701 µM) | 0.1 (≈ 0.18 µM) | 0.2 (≈ 0.359 µM) | 0.39 (≈ 0.701 µM) | 0.39 (≈ 0.701 µM) | 0.78 (≈ 1.4 µM) | 0.78 (≈ 1.4 µM) | 0.78 (≈ 1.4 µM) |  | > 25 | 3.12 (≈ 5.6 µM) | 0.39 (≈ 0.701 µM) | 0.78 (≈ 1.4 µM) | 6.25 (≈ 11.2 µM) | 0.39 (≈ 0.701 µM) | 6.25 (≈ 11.2 µM) | 6.25 (≈ 11.2 µM) | MIC (P. cepacia 23): 6.25 µg/mL (≈ 11.2 µM) |
